This note sets out measurements from PMC7003794, “Chemical Proteomics and Phenotypic Profiling Identifies the Aryl Hydrocarbon Receptor as a Molecular Target of the Utrophin Modulator Ezutromid” (Angewandte Chemie (International Ed. in English), 2020).

The target in this test is T1, aryl hydrocarbon receptor (AhR) (Mus musculus, UniProt P30561).
T1 construct: purified mouse AhR:ARNT complex; with ARNT
The test is described as follows: fluorescence quenching assay (intrinsic ligand fluorescence) with purified AhR:ARNT. The format is binding.

T1 sequence (P30561 10-848): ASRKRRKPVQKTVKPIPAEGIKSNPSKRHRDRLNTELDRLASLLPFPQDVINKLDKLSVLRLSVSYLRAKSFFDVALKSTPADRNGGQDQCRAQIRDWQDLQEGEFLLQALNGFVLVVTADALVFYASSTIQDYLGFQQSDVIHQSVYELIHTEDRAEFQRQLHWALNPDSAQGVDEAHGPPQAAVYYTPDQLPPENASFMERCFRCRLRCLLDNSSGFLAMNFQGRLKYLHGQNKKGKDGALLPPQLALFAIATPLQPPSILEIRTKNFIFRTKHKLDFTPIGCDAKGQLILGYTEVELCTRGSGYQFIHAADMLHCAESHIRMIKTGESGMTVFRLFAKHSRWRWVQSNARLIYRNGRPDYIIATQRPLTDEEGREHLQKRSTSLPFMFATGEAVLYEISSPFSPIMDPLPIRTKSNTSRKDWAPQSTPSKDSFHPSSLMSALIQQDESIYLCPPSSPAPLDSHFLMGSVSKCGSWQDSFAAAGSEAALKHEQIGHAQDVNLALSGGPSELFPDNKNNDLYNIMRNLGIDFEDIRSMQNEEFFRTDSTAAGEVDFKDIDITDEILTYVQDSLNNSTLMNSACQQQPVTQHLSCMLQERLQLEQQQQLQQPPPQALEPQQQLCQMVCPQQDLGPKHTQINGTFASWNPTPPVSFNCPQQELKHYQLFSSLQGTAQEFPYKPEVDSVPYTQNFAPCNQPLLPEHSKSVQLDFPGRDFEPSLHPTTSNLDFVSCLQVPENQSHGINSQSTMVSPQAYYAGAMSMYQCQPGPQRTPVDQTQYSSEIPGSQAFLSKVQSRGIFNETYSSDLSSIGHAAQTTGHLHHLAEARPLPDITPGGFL
T1 sequence (P53762 2-791 partner): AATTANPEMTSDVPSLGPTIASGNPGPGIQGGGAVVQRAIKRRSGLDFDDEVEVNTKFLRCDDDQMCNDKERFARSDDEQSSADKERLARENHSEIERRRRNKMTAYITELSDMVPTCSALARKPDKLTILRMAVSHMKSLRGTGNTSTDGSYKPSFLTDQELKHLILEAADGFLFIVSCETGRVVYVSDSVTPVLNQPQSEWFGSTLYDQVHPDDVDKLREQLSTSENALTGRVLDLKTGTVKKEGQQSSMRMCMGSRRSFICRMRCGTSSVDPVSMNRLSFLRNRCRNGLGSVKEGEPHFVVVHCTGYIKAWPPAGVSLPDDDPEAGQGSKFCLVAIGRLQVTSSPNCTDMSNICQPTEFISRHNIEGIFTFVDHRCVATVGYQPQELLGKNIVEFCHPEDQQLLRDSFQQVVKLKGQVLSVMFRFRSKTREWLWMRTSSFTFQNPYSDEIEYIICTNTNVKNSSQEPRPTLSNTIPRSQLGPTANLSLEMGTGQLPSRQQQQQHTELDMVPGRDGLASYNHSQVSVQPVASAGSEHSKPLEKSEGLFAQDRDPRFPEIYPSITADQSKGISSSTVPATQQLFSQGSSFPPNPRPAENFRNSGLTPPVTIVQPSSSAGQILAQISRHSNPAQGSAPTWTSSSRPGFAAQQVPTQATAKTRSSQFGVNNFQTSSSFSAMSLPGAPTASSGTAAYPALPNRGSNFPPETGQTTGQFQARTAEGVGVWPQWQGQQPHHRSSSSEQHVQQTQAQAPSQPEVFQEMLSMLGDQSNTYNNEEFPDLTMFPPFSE

`CCS(=O)(=O)c1ccc2oc(-c3ccc4ccccc4c3)nc2c1` [compound 1, ezutromid]: binding was put at a Kd of 50.1 ± 22.1 nM.

What is called Kd is the concentration at which binding is half-saturated.
